Values of other authors, collected in US6107321A, “Diazabicyclooctane derivatives having selective 5-HT1Dalpha agonist activity” (Merck Sharp & Dohme Ltd., priority 1995, dated 2000).

Tests used:
[1] = tested on: human 5-HT1D.sbsb.α and 5-HT1D.sbsb.β receptor subtypes; conditions: cf. WO-A-91/17174, Table 1
humans = conditions: therapeutic doses

CNS(=O)(=O)Cc1ccc2[nH]cc(CCN(C)C)c2c1 [sumatriptan]
discrimination between the human 5-HT1Dα and 5-HT1Dβ receptor subtypes [1]: barely discriminates | adverse cardiovascular events (humans): certain adverse cardiovascular events
